US20040087798A1, “Novel amide compounds” (priority 2000, published 2004)

Biological target: T1, 5-HT2c binding site (Rattus norvegicus, UniProt P08909)
T1 construct: ability to displace [^3H]-mesulergine in the rat prefrontal cortex; from tissue; host or cells: rat prefrontal cortex membrane suspension
T1 sequence (P08909 33-460): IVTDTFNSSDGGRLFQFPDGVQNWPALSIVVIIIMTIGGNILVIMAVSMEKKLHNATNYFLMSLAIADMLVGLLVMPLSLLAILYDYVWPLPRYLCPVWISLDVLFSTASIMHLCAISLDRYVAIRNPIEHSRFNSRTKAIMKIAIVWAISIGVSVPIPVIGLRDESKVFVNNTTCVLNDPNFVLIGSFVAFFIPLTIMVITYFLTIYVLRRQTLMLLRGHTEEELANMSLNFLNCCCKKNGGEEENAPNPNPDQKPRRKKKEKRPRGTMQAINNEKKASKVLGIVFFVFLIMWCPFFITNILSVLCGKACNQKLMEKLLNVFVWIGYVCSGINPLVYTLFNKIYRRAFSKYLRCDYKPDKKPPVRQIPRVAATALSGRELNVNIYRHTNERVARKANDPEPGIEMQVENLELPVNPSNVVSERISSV
Assay: [3H]-mesulergine binding
Settings: test drug 10^−6M; displacement of [3H]-mesulergine (1 nM) in rat prefrontal cortex membranes; 30 nM spiperone present
Procedure: [^3H]-mesulergine Binding
The affinity of test drugs for the 5-HT2c binding site can be determined by assessing their ability to displace [^3H]-mesulergine in the rat prefrontal cortex. The method employed was similar to that of Pazos et al, 1984.
The membrane suspension (500 μl) was incubated with [^3H]-mesulergine (1 nM) in Tris hydrochloric acid buffer solution (pH 7.4) containing calcium chloride 4 mM and ascorbic acid 0.1% at 37° C. for 30 minutes. Non-specific binding was measured in the presence of mianserin (1 μM). 30 nM spiperone was used to prevent binding to 5-HT2A sites. Test drugs (10^−6M) were added in a volume of 100 μl. The total assay volume was 1000 μl. Incubation was stopped by rapid filtration using a Brandel cell harvester and radioactivity measured by scintillation counting.

inhibition at 1 µM | Structure (SMILES)
82% | O=C(C/C=C/c1ccccc1)Nc1cccc(-n2ccnc2)c1 [Compound (a), (3E)-N-[3-(imidazol-1-yl)phenyl]-4-phenyl-3-butenamide]

Tested on: not given
Assay: not given
Settings: not given

melting point | Structure (SMILES)
137 to 139 °C | N=C(Nc1cc(Cl)cc(NC(=O)/C=C/c2ccccc2C(F)(F)F)c1)c1ccccc1 [Example 35, (2E)-N-[3-chloro-5-(iminobenzylamino)phenyl]-3-[2-(trifluoromethyl)phenyl]-2-propenamide]
189 to 191 °C | N=C(Nc1ccc(F)c(NC(=O)/C=C/c2ccccc2Cl)c1)c1ccccc1 [Example 17, (2E)-N-[2-fluoro-5-(iminobenzylamino)phenyl]-3-(2-chlorophenyl)-2-propenamide]
213 to 214 °C | N=C(Nc1cc(Cl)c(Cl)c(NC(=O)/C=C/c2ccccc2C(F)(F)F)c1)c1ccccc1 [Example 154, (2E)-N-[2,3-dichloro-5-(iminobenzylamino)phenyl]-3-(2-trifluoromethylphenyl)-2-propenamide]
213 to 214 °C | COc1ccc(NC(=O)/C=C/c2ccccc2C(F)(F)F)cc1NC(=N)c1ccccc1 [Example 144, (2E)-N-[3-(iminobenzylamino)-4-methoxyphenyl]-3-(2-trifluoromethylphenyl)-2-propenamide]
198 to 199 °C | N=C(Nc1ccc(Cl)c(NC(=O)/C=C/c2ccccc2C(F)(F)F)c1)c1ccccc1 [Example 141, (2E)-N-[2-chloro-5-(iminobenzylamino)phenyl]-3-(2-trifluoromethylphenyl)-2-propenamide]
185 to 187 °C | N=C(Nc1cccc(NC(=O)/C=C/c2ccccc2C(F)(F)F)c1F)c1ccccc1 [Example 61, (2E)-N-[3-(iminobenzylamino)-2-fluorophenyl]-3-[2-(trifluoromethyl)phenyl]-2-propenamide]
109 to 114 °C | Cc1ccccc1/C=C/C(=O)Nc1cccc(NC(=N)c2ccccc2)c1 [Example 40, (2E)-N-[3 (iminobenzylamino)phenyl]-3-(2-methylphenyl)-2-propenamide]
112 to 116 °C | Cc1ccc(NC(=O)/C=C/c2ccccc2C(F)(F)F)cc1NC(=N)c1ccccc1 [Example 143, (2E)-N-[3-(iminobenzylamino)-4-methylphenyl]-3-(2-trifluoromethylphenyl)-2-propenamide]

Further lines, the compound ahead of its results:

Structure (SMILES) | melting point
O=C(C/C=C/c1ccccc1)Nc1cccc(-n2ccnc2)c1 [Compound (a), (3E)-N-[3-(imidazol-1-yl)phenyl]-4-phenyl-3-butenamide] | 130 to 133 °C
Cc1ncccc1Oc1ccc(NC(=O)C=Cc2ccccc2Cl)cn1 [Example 45, N-[6-[(2-methyl-3-pyridyl)oxy]-3-pyridyl]-3-(2-chlorophenyl)-2-propenamide] | 187 to 189 °C
N=C(Nc1cccc(NC(=O)Cc2ccccc2)c1)c1ccccc1 [Example 1, N-[3-(iminobenzylamino)phenyl]phenylacetamide] | 213 to 214 °C
N=C(Nc1cccc(NC(=O)/C=C/c2cccc(Cl)c2)c1)c1ccccc1 [Example 53, (2E)-N-[3-(iminobenzylamino)phenyl]-3-(3-chlorophenyl)-2-propenamide] | 260 to 262 °C
N=C(Nc1cc(Cl)cc(NC(=O)/C=C/c2ccccc2Br)c1)c1ccccc1 [Example 142, (2E)-N-[3-chloro-5-(iminobenzylamino)phenyl]-3-(2-bromophenyl)-2-propenamide] | 99 to 101 °C
CC(C)c1ccc(NC(=N)c2cccc(NC(=O)C=Cc3ccccc3Cl)c2)cc1 [Example 27, N-[3-[imino(4-isopropylanilino)methyl]phenyl}-2-chlorocinnamamide] | 112 to 118 °C
COc1ccccc1/C=C/C(=O)Nc1cccc(NC(=N)c2ccccc2)c1 [Example 14, (2E)-N-[3-(iminobenzylamino)phenyl]-3-(2-methoxyphenyl)-2-propenamide] | 219 to 221 °C
O=C(C=Cc1ccccc1Cl)Nc1ccc(NCc2ccccn2)nc1 [Example 44, N-[6-[(2-pyridylmethyl)amino]-3-pyridyl]-3-(2-chlorophenyl)-2-propenamide] | 164 to 165 °C
